Measurements published in patent US9549965B2, “Pharmaceutical composition for treating a microbial infection” (HELPERBY THERAPEUTICS LIMITED, priority 2010, dated 2017).
Values joined by “and” are separate entries in the source; they are usually repeats but may differ in a detail not shown here. Equal entries are not always repeated. Structures can show the parent of a compound that is named as a salt.

Experiments:
[1] = test system: log phase E. coli; test: Chequerboard analysis with polymyxin E against log phase E. coli; assay type: cell-based, Escherichia coli; settings: for MIC: Escherichia coli
Procedure: (§1) Escherichia coli K12; Gram negative; Reference strain.
(§2) The above-described overnight cultures were diluted (1000×) with iso-sensitest broth. The cultures were then incubated at 37° C. with shaking for 1-2 hours to reach log CFU 6, which served as log phase cultures.
(§3) The bactericidal activity of the drugs against log phase cultures were determined by minimal inhibitory concentration (MIC) of the drugs, which is defined as the lowest concentration which inhibits visible growth. Different concentrations of each test compound were incubated with the log-phase cultures in 96 well plates for 24 hours. Bactericidal activity was then examined by taking a spectrophotometer reading (using a plate reader) at 405 nm.

[2] = test system: stationary phase S. aureus; test: Bactericidal activity against stationary phase S. aureus (CFU counts); assay type: cell-based, Staphylococcus aureus; settings: for log reduction at 6.25 µg/mL / log reduction at 12.5 µg/mL / log reduction at 25 µg/mL: Staphylococcus aureus, read-out: Log Kill
Procedure: Staphylococcus aureus (Oxford strain); Gram positive; Reference strain.
(§4) Bacteria were grown in 10 ml of nutrient broth (No. 2 (Oxoid)) overnight at 37° C., with continuous shaking at 120 rpm. The overnight cultures were diluted (1000×) in 100 ml of growth medium and then incubated without shaking for 10 days. Viability of the bacteria was estimated by colony forming unit (CFU) counts at 2 hour intervals at the first 24 hours and at 12-24 hours afterwards. From serial 10-fold dilutions of the experimental cultures, 100 μl samples were added to triplicate plates of nutrient agar plates (Oxoid) and blood agar plates (Oxoid). Colony forming units (CFU) were counted after incubation of the plates at 37° C. for 24 hours.
(§5) Cultures incubated for more than 24 hours are in the stationary phase. For drug screening, 5-6 day old stationary phase cultures were used.
(§6) Different concentrations of each test compound were incubated with stationary phase cultures (5-6 day cultures) in 96 well plates for 24 or 48 hours. Bactericidal activity was then determined by taking CFU counts of the resulting cultures, as described above.

[3] = test system: log phase E. coli; test: MIC against log phase E. coli; assay type: cell-based, Escherichia coli
Procedure: as §1, §2, §3

[4] = test system: NDM-1 Klebsiella pneumoniae; test: Chequerboard analysis with colistin against NDM-1 Klebsiella pneumoniae; assay type: cell-based
[5] = test system: stationary phase E. coli; test: Bactericidal activity against stationary phase E. coli (CFU counts); assay type: cell-based, Escherichia coli
Procedure: as §1, §4, §5, §6

[6] = test system: persistent E. coli; test: Bactericidal activity against persistent E. coli selected by gentamicin; assay type: cell-based, Escherichia coli
Procedure: as §1
An antibiotic (gentamicin) was added to 5-6 day stationary-phase cultures to the final concentration of 50 to 100 μg/ml for 24 hours. After 24 hours of antibiotic treatment, the cells are washed 3 times with phosphate buffered saline (PBS), and then resuspended in PBS. The surviving bacterial cells are used as persisters. Viability is estimated by CFU counts. The persisters were then used in measurements of bactericidal activity for test compounds.
Different concentrations of each test compound were incubated with the (persister) cell suspension in 96 well plates for various periods of time (24 and 48 hours). Bactericidal activity was then determined by taking CFU counts of the resulting cultures, as described above.

[7] = Escherichia coli, read-out: MIC

CC(COc1ccccc1)N(CCCl)Cc1ccccc1 (stereo not shown) [HT00800157, Phenoxybenzamine Hydrochloride] was tested, and the MIC ([1]; alone) was greater than 64 µg/mL, the MIC ([1]; in combination with polymyxin E at 0.06 μg/ml) was 64 µg/mL and the MIC ([1]; in combination with polymyxin E at 0.25 μg/ml) was 1 µg/mL. The spectrophotometer reading ([1]; HT00800157 1 μg/ml alone) was 1.52, the spectrophotometer reading ([1]; HT00800157 2 μg/ml alone) was 1.53 and the spectrophotometer reading ([1]; HT00800157 4 μg/ml alone) was 1.60. It also gave a spectrophotometer reading ([1]; HT00800157 8 μg/ml alone) of 1.56, a spectrophotometer reading ([1]; HT00800157 16 μg/ml alone) of 1.56 and a spectrophotometer reading ([1]; HT00800157 32 μg/ml alone) of 1.57. It also gave a spectrophotometer reading ([1]; HT00800157 64 μg/ml alone) of 1.60.
For COC(=O)C1=C(C)NC(C)=C(C(=O)OCC(C)C)C1c1ccccc1[N+](=O)[O-] (stereo not shown) [Nisoldipine], the log reduction at 6.25 µg/mL ([2]; 6.25 μg/ml) was 0, the log reduction at 12.5 µg/mL ([2]; 12.5 μg/ml) was 6.15 and the log reduction at 25 µg/mL ([2]; 25 μg/ml) was 6.15. For the same compound, the MIC [3, 7] was greater than 50 µg/mL.
With Clc1ccc(C(Cn2ccnc2)OCc2ccsc2Cl)c(Cl)c1 (stereo not shown) [Tioconazole] the log reduction at 6.25 µg/mL ([2]; 6.25 μg/ml) was 0, the log reduction at 12.5 µg/mL ([2]; 12.5 μg/ml) was 6.15 and the log reduction at 25 µg/mL ([2]; 25 μg/ml) was 6.15.
With Polymyxin E (Colistin) the spectrophotometer reading ([1]; polymyxin E 0.0019 μg/ml alone) was 1.53, the spectrophotometer reading ([1]; polymyxin E 0.0039 μg/ml alone) was 1.55 and the spectrophotometer reading ([1]; polymyxin E 0.0078 μg/ml alone) was 1.55. The spectrophotometer reading ([1]; polymyxin E 0.015625 μg/ml alone) was 1.53, the spectrophotometer reading ([1]; polymyxin E 0.03125 μg/ml alone) was 1.42 and the spectrophotometer reading ([1]; polymyxin E 0.0625 μg/ml alone) was 1.52. For the same compound, the spectrophotometer reading ([1]; polymyxin E 0.125 μg/ml alone) was 1.48, the spectrophotometer reading ([1]; polymyxin E 0.25 μg/ml alone) was 1.25 and the spectrophotometer reading ([1]; polymyxin E 0.5 μg/ml alone) was 0.49. The spectrophotometer reading ([1]; polymyxin E 1 μg/ml alone) was 0.49, the spectrophotometer reading ([1]; polymyxin E 2 μg/ml alone) was 0.50 and the spectrophotometer reading ([4]; colistin 0.5 mg/L alone, Table 6) was 1.08. For the same compound, the spectrophotometer reading ([4]; colistin 0.5 mg/L alone, Table 7) was 0.98, the spectrophotometer reading ([4]; colistin 0.5 mg/L alone, Table 8) was 0.94 and the spectrophotometer reading ([4]; colistin 0.5 mg/L alone, Table 9) was 1.12. It also gave a spectrophotometer reading ([4]; colistin 0.5 mg/L alone, Table 10) of 1.14, a spectrophotometer reading ([4]; colistin 0.5 mg/L alone, Table 11) of 0.96 and a spectrophotometer reading ([4]; colistin 1 mg/L alone, Table 6) of 1.03. For the same compound, the spectrophotometer reading ([4]; colistin 1 mg/L alone, Table 7) was 1.02, the spectrophotometer reading ([4]; colistin 1 mg/L alone, Table 8) was 0.94 and the spectrophotometer reading ([4]; colistin 1 mg/L alone, Table 9) was 1.13. For the same compound, the spectrophotometer reading ([4]; colistin 1 mg/L alone, Table 10) was 1.12, the spectrophotometer reading ([4]; colistin 1 mg/L alone, Table 11) was 0.93 and the spectrophotometer reading ([4]; colistin 2 mg/L alone, Table 6) was 1.05. It also gave a spectrophotometer reading ([4]; colistin 2 mg/L alone, Table 7) of 0.95, a spectrophotometer reading ([4]; colistin 2 mg/L alone, Table 8) of 0.87 and a spectrophotometer reading ([4]; colistin 2 mg/L alone, Table 9) of 1.07. For the same compound, the spectrophotometer reading ([4]; colistin 2 mg/L alone, Table 10) was 1.09, the spectrophotometer reading ([4]; colistin 2 mg/L alone, Table 11) was 0.91 and the spectrophotometer reading ([4]; colistin 4 mg/L alone, Table 6) was 0.34. The spectrophotometer reading ([4]; colistin 4 mg/L alone, Table 7) was 0.87, the spectrophotometer reading ([4]; colistin 4 mg/L alone, Table 8) was 0.54 and the spectrophotometer reading ([4]; colistin 4 mg/L alone, Table 9) was 0.80. It also gave a spectrophotometer reading ([4]; colistin 4 mg/L alone, Table 10) of 0.89, a spectrophotometer reading ([4]; colistin 4 mg/L alone, Table 11) of 0.90 and a spectrophotometer reading ([4]; colistin 8 mg/L alone, Table 6) of 0.82. It also gave a spectrophotometer reading ([4]; colistin 8 mg/L alone, Table 7) of 0.44, a spectrophotometer reading ([4]; colistin 8 mg/L alone, Table 8) of 0.57 and a spectrophotometer reading ([4]; colistin 8 mg/L alone, Table 9) of 0.68. For the same compound, the spectrophotometer reading ([4]; colistin 8 mg/L alone, Table 10) was 0.63, the spectrophotometer reading ([4]; colistin 8 mg/L alone, Table 11) was 0.53 and the spectrophotometer reading ([4]; colistin 16 mg/L alone, Table 6) was 0.78. It also gave a spectrophotometer reading ([4]; colistin 16 mg/L alone, Table 7) of 0.53, a spectrophotometer reading ([4]; colistin 16 mg/L alone, Table 8) of 0.39 and a spectrophotometer reading ([4]; colistin 16 mg/L alone, Table 9) of 0.40. For the same compound, the spectrophotometer reading ([4]; colistin 16 mg/L alone, Table 10) was 0.69, the spectrophotometer reading ([4]; colistin 16 mg/L alone, Table 11) was 0.48 and the spectrophotometer reading ([4]; colistin 32 mg/L alone, Table 6) was 0.33. For the same compound, the spectrophotometer reading ([4]; colistin 32 mg/L alone, Table 7) was 0.36, the spectrophotometer reading ([4]; colistin 32 mg/L alone, Table 8) was 0.41 and the spectrophotometer reading ([4]; colistin 32 mg/L alone, Table 9) was 0.39. The spectrophotometer reading ([4]; colistin 32 mg/L alone, Table 10) was 0.40, the spectrophotometer reading ([4]; colistin 32 mg/L alone, Table 11) was 0.41 and the “Colistin MIC” value ([4]; colistin alone) was 32 µg/mL and 16 µg/mL. The “Colistin MIC” value ([4]; combined with 32 mg/L of suloctidil) was 1 µg/mL and the “Colistin MIC” value ([4]; combined with 64 mg/L of mefloquine) was 0.5 µg/mL.
With CCCCCCc1ccc(O)cc1O.Nc1c2ccccc2nc2ccccc12 [Acrisorcin] the Log Kill ([5]; 6.25 μg/ml) was 6.14, the Log Kill ([5]; 12.50 μg/ml) was 6.14 and the Log Kill ([5]; 25.00 μg/ml) was 6.14. The MIC [3] was “— (— signifies MIC higher than 50 μg/ml)”.
For C1CCC(C(CC2CCCCN2)C2CCCCC2)CC1 (stereo not shown) [Perhexiline maleate], the log reduction at 6.25 µg/mL ([2]; 6.25 μg/ml) was 6.15, the log reduction at 12.5 µg/mL ([2]; 12.5 μg/ml) was 6.15 and the log reduction at 25 µg/mL ([2]; 25 μg/ml) was 6.15. For the same compound, the MIC [3, 7] was 10 µg/mL, the log reduction at 6.25 µg/mL ([6]; Escherichia coli, 6.25 μg/ml, read-out: Log Kill) was -0.01 and the log reduction at 12.5 µg/mL ([6]; Escherichia coli, 12.5 μg/ml, read-out: Log Kill) was 0.04. It also gave a log reduction at 25 µg/mL ([6]; Escherichia coli, 25 μg/ml, read-out: Log Kill) of 6.21.
For Bithionate sodium, the “Log Kill” value ([2]; 6.25 μg/ml) was 0.01, the “Log Kill” value ([2]; 12.5 μg/ml) was 6.15 and the “Log Kill” value ([2]; 25 μg/ml) was 6.15. The MIC [3] was 5 µg/mL, the “Log Kill” value ([6]; 6.25 μg/ml) was 0.01 and the “Log Kill” value ([6]; 12.5 μg/ml) was 0.03. For the same compound, the “Log Kill” value ([6]; 25 μg/ml) was 6.21.
